Experimental data reported in patent publication US11814372B2, “Agonists of EPHA and their uses” (CASE WESTERN RESERVE UNIVERSITY, priority 2017, dated 2023).

Key:
Type in all cases: cell-based
ERK1/2 and Akt = experiment: Inhibition of ERK1/2 and Akt activation in A172-A2 glioma cells (immunoblot); conditions: 50 μM and 100 μM, 90 minutes
Method: Cells were plated in 24-well dishes at a density of 100,000 cells/well and grown for 24 hours prior to stimulation with appropriate compounds and ephrins for the given amounts of time. Compounds were prepared in DMSO at 500 times the final concentrations and 0.2% DMSO was used as vehicle control. Following treatment, cells were lysed directly in SDS Gel Loading Buffer and immunoblotted as described previously. […] For immunoprecipitation, 300,000 cells/well were plated in 6-well dishes and lysed in modified RIPA Buffer (20 mM Tris-HCl pH 7.4, 20 mM NaF, 150 mM NaCl, 10% glycerol, 0.1% SDS, 0.5% DCA, 2 mM EDTA, 1% Triton X-100) following treatment. Either 10 ag of ephrin-A1-Fc, or 4 mg of EphA2 mouse monoclonal antibody (Clone D7, Millipore) were used, and mouse IgG was used as a negative control for EphA2 IP. […] We first tested this by utilizing the A172 glioma cells engineered to overexpress EphA2 receptor (A172-A2).

[1] = system: MDA-MB-231, A172-A2 and PC3-DAB2IP KD cells; experiment: Chemotactic cell migration toward hepatocyte growth factor (HGF); conditions: all three cell lines; lesser degree than in the haptotactic assay
EphA2 = EphA2 (Homo sapiens, UniProt P29317); experiment: EphA2 activation in MDA-231-A2 cells (pEphA/B immunoblot, EphA2 immunoprecipitation); parameters: expressed in transfected cells; host or cells: MDA-MB-231 (MDA-231-A2), HEK 293 (HEK 293-A2), A172 (A172-A2), U373 (U373-A2)
Method: Cells were plated in 24-well dishes at a density of 100,000 cells/well and grown for 24 hours prior to stimulation with appropriate compounds and ephrins for the given amounts of time. Compounds were prepared in DMSO at 500 times the final concentrations and 0.2% DMSO was used as vehicle control. Following treatment, cells were lysed directly in SDS Gel Loading Buffer and immunoblotted as described previously. Immunoprecipitation and immunofluorescence staining was performed as described. For immunoprecipitation, 300,000 cells/well were plated in 6-well dishes and lysed in modified RIPA Buffer (20 mM Tris-HCl pH 7.4, 20 mM NaF, 150 mM NaCl, 10% glycerol, 0.1% SDS, 0.5% DCA, 2 mM EDTA, 1% Triton X-100) following treatment. Either […] of ephrin-A1-Fc, or […] of EphA2 mouse monoclonal antibody (Clone D7, Millipore) were used, and mouse IgG was used as a negative control for EphA2 IP. To identify small molecule agonists for EphA2, we took a structure-based in silico screening approach. […] This notion was confirmed recently by determination of the crystal structure of the EphA2/ephrin-A1 complex (FIG. 1B). The size falls in the range of common drugs, making EphA2 LBD a desirable target for drug discovery. Toward this end, we initiated in silico screening to search for small molecules that interact favorably with the ligand-binding pocket of EphA2 derived from molecular modeling before the crystal structure became available. Multiple conformations for each structure were generated with OMEGA (OpenEye) and each conformation was docked individually using DOCK. Our initial screening of over 750,000 compounds identified a number of small molecules that could potentially interact with the ligand-binding pocket. The commercially available top-scoring compounds were screened for their ability to induce EphA2 activation in MDAMB-231 breast cancer cells. Because MDA-MB-231 cells express endogenous EphA2 as well as other Eph receptors, including EphA1, we overexpressed EphA2 in order to minimize the contribution from other Eph receptors in our analysis. […] Total cell lysates were probed with a previously described antibody that recognizes the activated Eph receptors.

EphB4 = target: T1, EphB4 (Homo sapiens, UniProt P54760); experiment: Activation of endogenous EphB4 in HEK 293 vector control cells
T1 construct: host or cells: HEK 293 vector control cells
T1 sequence (P54760 16-987): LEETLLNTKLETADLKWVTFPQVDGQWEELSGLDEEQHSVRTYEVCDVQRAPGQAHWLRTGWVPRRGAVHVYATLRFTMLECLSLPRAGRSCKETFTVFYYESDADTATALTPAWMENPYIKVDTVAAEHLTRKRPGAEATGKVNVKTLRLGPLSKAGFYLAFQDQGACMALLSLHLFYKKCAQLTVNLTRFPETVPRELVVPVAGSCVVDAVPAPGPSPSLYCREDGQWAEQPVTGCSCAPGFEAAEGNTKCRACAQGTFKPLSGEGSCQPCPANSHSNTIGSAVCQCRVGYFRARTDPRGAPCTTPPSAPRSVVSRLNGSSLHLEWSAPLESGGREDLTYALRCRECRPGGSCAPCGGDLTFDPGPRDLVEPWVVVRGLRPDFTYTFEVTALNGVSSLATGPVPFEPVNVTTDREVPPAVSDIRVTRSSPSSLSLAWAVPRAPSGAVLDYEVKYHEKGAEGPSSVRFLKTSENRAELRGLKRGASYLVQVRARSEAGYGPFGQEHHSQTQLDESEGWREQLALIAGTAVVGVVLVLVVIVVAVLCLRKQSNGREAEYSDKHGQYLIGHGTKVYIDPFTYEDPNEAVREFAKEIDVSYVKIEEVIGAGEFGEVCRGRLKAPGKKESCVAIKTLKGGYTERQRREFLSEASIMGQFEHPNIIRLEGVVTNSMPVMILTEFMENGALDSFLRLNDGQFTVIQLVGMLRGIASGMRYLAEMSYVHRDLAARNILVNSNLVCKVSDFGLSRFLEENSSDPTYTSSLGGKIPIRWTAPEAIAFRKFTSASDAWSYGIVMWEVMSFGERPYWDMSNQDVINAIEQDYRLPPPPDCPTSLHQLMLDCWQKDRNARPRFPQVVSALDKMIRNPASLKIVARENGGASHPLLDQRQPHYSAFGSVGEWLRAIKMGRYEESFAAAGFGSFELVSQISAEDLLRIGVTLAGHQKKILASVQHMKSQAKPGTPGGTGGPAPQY

[2] = MDA-231-A2 cells, single 50 μM dose

EphA2, sequence (P29317 24-976): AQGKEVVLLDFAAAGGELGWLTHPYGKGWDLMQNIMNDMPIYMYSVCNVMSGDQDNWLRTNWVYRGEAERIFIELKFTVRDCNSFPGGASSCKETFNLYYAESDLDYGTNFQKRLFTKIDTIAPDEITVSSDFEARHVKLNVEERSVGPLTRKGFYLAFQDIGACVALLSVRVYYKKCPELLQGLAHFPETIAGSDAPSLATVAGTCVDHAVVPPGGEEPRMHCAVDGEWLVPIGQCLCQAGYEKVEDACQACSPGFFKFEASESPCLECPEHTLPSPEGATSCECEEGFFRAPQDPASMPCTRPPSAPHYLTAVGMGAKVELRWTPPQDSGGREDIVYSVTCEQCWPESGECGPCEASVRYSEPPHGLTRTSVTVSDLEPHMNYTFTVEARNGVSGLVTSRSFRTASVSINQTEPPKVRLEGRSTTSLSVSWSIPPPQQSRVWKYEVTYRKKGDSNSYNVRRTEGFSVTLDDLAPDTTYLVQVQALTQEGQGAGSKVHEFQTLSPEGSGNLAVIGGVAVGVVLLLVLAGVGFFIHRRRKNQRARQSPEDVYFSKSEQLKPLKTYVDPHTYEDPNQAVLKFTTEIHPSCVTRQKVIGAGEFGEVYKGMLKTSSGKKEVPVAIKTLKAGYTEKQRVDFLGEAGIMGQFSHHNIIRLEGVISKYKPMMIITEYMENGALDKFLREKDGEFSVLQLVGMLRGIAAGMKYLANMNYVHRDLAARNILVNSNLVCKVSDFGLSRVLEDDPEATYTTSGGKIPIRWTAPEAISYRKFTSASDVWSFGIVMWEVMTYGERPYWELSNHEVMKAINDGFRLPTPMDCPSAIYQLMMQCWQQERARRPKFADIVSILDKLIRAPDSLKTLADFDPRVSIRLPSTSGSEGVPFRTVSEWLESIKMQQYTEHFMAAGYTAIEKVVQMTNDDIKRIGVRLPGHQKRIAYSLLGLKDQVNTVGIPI

Structure (SMILES): COc1cc2nc(N3CCN(C(=O)C4COc5ccccc5O4)CC3)nc(N)c2cc1OC (stereo not drawn) [doxazosin]
- inhibition of Akt and ERK1/2 activation (ERK1/2 and Akt): significant inhibition of Akt and ERK1/2 activation
- chemotactic cell migration toward HGF [1]: dose-dependent inhibition
- EphA2 activation after phenoxybenzamine pretreatment versus no pretreatment (EphA2; MDA-231-A2 cells pretreated with 1 μM phenoxybenzamine, then 1 hour treatment): No difference in EphA2 activation
- EphA2 activation, screening of top-scoring compounds (EphA2; MDA-231-A2 cells, compounds at 50 µM, 30 minutes): activated EphA2 to the greatest extent
- EphA2 level after treatment (EphA2; MDA-231-A2 cells, high doses): degradation of EphA2
- EphA2 activation, dose-response (EphA2; MDA-231-A2 cells, multiple doses, 30 minutes): dose-dependent manner
- earliest time of significant EphA2 activation (EphA2; [2]): 5 min
- time of peak EphA2 activation (EphA2; [2]): around 30 min
- endogenous EphB4 activation (EphB4): not activated
